1 compound from ChEMBL document CHEMBL1142439 (Bioorg Med Chem, 2008) can be followed below.

The structures appear in SMILES notation. Activity calls are given as the source filed them. No cut-off for these calls is given here.

One test has as its target D(1A) dopamine receptor (Homo sapiens, UniProt P21728). The experiment in a line: Agonist activity at human recombinant dopamine D1 receptor expressed in CHO cells assessed as stimulation of cAMP production. The format is functional, cell-based. (Cyclic AMP is a second messenger, typically raised through Gs and lowered through Gi signalling.)
Another test addresses D(2) dopamine receptor (Homo sapiens, UniProt P14416). Put plainly: Agonist activity at human dopamine D2 receptor expressed in CHO cells assessed as inhibition of forskolin-stimulated cAMP production. The format is functional, cell-based.
The subject of test [1] is Rattus norvegicus. Put plainly: Decrease in dopamine release in Wistar rat striatal at 1 nmol/kg, sc after 90 mins. In kind it is functional. The arrangement: scale not given: the % may be the effect or the level left.
Test [2] concerns Rattus norvegicus. Put plainly: Decrease in dopamine release in Wistar rat striatal at 10 nmol/kg, sc after 90 mins. In kind it is functional. The arrangement: scale not given: the % may be the effect or the level left.
Test [3] concerns Rattus norvegicus. Put plainly: Decrease in dopamine release in Wistar rat striatal at 1 nmol/kg, sc after 6 hrs. The format is functional. The arrangement: scale not given: the % may be the effect or the level left.
For test [4], the system named is Rattus norvegicus. Put plainly: Decrease in dopamine release in Wistar rat striatal at 100 nmol/kg, po after 45 mins. In kind it is functional. Also on record: scale not given: the % may be the effect or the level left.
For test [5], the system named is Rattus norvegicus. Put plainly: Induction of locomotor activity in Wistar rat at 10 nmol/kg, sc. The format is functional, organism-based.
The test system of test [6] is Rattus norvegicus. Put plainly: Induction of penile grooming in Wistar rat at 10 nmol/kg, sc. The format is functional, organism-based.
For test [7], the system named is Rattus norvegicus. The experiment in a line: Induction of yawning in Wistar rat at 10 nmol/kg, sc. In kind it is functional, organism-based.
The subject of test [8] is Rattus norvegicus. Put plainly: Induction of sniffing in Wistar rat at 10 nmol/kg, sc. In kind it is functional, organism-based.
Test [9] concerns Rattus norvegicus. The experiment in a line: Induction of rearing grooming in Wistar rat at 10 nmol/kg, sc. In kind it is functional, organism-based.

Sequence of D(1A) dopamine receptor (P21728 whole entry): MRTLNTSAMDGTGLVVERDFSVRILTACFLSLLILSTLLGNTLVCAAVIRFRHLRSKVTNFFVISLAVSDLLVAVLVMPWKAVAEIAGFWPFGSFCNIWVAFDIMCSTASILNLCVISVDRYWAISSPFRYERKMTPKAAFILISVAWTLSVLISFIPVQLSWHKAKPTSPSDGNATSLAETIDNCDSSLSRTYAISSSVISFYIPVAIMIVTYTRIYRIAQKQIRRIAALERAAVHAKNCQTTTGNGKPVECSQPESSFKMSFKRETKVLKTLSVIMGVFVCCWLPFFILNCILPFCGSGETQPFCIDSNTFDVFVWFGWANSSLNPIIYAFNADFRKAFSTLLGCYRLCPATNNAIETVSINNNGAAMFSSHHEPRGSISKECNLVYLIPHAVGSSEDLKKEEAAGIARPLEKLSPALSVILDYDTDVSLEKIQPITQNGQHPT
Sequence of D(2) dopamine receptor (P14416 whole entry): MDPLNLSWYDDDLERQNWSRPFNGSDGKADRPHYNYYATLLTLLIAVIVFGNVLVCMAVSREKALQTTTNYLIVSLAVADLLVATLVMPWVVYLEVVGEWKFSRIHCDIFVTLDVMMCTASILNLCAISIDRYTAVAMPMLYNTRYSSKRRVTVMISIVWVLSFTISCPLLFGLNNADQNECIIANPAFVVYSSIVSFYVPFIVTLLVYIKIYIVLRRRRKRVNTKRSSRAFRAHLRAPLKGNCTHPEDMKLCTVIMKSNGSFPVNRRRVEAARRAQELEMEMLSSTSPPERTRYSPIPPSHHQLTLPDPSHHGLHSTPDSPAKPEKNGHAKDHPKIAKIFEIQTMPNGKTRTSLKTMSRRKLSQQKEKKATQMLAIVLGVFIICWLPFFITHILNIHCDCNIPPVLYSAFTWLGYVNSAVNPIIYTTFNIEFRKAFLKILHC

On to `CCCN1CCC[C@@H]2Cc3c(ccc(O)c3O)C[C@H]21`, for which the EC50 (in general, the midpoint of the concentration-response curve) was determined as 25 nM on D(1A) dopamine receptor and 0.65 nM at D(2) dopamine receptor. The Activity in the test with Rattus norvegicus [1] is listed as 20%; in the test on Rattus norvegicus [2], 30%; in the test with Rattus norvegicus [3] it was 30%; in the test with Rattus norvegicus [4], 40%. Also, the outcome with Rattus norvegicus [5], in the test with Rattus norvegicus [6], with Rattus norvegicus [7], in the test with Rattus norvegicus [8] and with Rattus norvegicus [9] was Active.
